Measured values taken from paper PMC6308302, “Identification of Pharmacokinetic Markers for Guanxin Danshen Drop Pills in Rats by Combination of Pharmacokinetics, Systems Pharmacology, and Pharmacodynamic Assays” (Frontiers in Pharmacology, 2018).
“Also recorded” adds a separate entry of the source. Marks after values point to notes of the source that are not given here.

What was measured:
[1] = Aqueous solubility test (vortexing in water); assay type: physicochemical; details: water at 25 °C
Method: Aqueous solubility (S) test of the 17 ingredients was performed by vortexing 10 mg of each ingredient in […] water in a test tube at ambient temperature and 1 atm. After vortexing for 5 min, if the solution is clear, the tested object will be considered as soluble in water. In silico assessment of the physicochemical properties governing permeation and intestinal absorption was carried out for the 17 ingredients studied. Theory aqueous solubility (S) was calculated with ALOGPS 2.1 online software via the Virtual Computational Chemistry Laboratory service (Chemoinformatics Group, Neuherberg, Germany) (VCCLAB^1). The octanol–water partition coefficient (cLogP), the total hydrogen bond count (donors and acceptors), and topological polar surface area (TPSA) were determined using the Molinspiration Property Calculator (Molinspiration Cheminformatics, Bratislava, Slovak Republic^2). Lipinski’s rule of 5 was used to predict the permeability of the compound ([Lipinski et al., 2001]).

Caco-2 cell monolayers = details: ref Lu et al., 2008, Liu et al., 2009, Hu et al., 2014, Bowles et al., 2017, cited from earlier work; for Papp(apical→basolateral) / Papp(basolateral→apical): Caco-2 cell monolayers, from literature; for apparent permeability in Caco-2 cell monolayers: previous results
[2] = Stability tests in rat plasma (QC samples, HPLC-MS); details: n=5
Text: Accuracy and precision were expressed by relative error (RE) and coefficient of variance (RSD), respectively.

[3] = Multiple component PK study in rat plasma after p.o. GDDP (HPLC-MS); details: for determination in rat plasma at the planned successive PK time points / detection in rat plasma: GDDP 0.8 g/kg p.o.; for determination in rat plasma at the planned successive PK time points: 5, 10, 15, 30, 45, 60, and 120 min, LOQ 1.0–1.4 ng/mL; for detection in rat plasma: at 5, 10, 15, 30, 45, or 60 min, LOD 0.5–0.7 ng/mL
[4] = test system: isoprenaline-induced MI in mice; assay: In vivo anti-MI study: isoprenaline-induced myocardial injury (ECG, H&E histology); details: for ECG (lead II) findings on the fifth day of the trial: 40 mg/kg p.o., isoprenaline 5 mg/kg on days 4 and 5
[5] = 24h in auto-sampler vials, spiked 2 ng/mL
[6] = 24h in auto-sampler vials, spiked 400 ng/mL
[7] = 24h in auto-sampler vials, spiked 1600 ng/mL
[8] = Placing plasma for 6h at 4°C, spiked 2 ng/mL
[9] = Placing plasma for 6h at 4°C, spiked 400 ng/mL
[10] = Placing plasma for 6h at 4°C, spiked 1600 ng/mL
[11] = three freeze-thaw cycles, rat plasma, spiked 2 ng/mL
[12] = three freeze-thaw cycles, rat plasma, spiked 400 ng/mL
[13] = three freeze-thaw cycles, rat plasma, spiked 1600 ng/mL
[14] = Sprague-Dawley, rat, plasma, po, 0.4 g/kg
[15] = Sprague-Dawley, rat, plasma, po, 0.4 g/kg, Cmax, rat plasma, GDDP 0.4 g/kg p.o. (Low dose group), n=3
[16] = Sprague-Dawley, rat, plasma, po, 0.8 g/kg
[17] = Sprague-Dawley, rat, plasma, po, 0.8 g/kg, Cmax (high / low plasma drug concentrations), rats, GDDP 0.4 and 0.8 g/kg p.o., classification
[18] = Sprague-Dawley, rat, plasma, po, 0.8 g/kg, Cmax, rat plasma, GDDP 0.8 g/kg p.o. (High dose group), n=3
[19] = Sprague-Dawley, rat, plasma, po, 0.8 g/kg, t1/2 β (fast / slow elimination type), rats, GDDP 0.4 and 0.8 g/kg p.o., classification
[20] = Sprague-Dawley, rat, plasma, po, 0.8 g/kg, t1/2 β, rat plasma, GDDP 0.8 g/kg p.o. (High dose group), n=3
[21] = rat plasma, GDDP 0.4 g/kg p.o. (Low dose group), n=3
[22] = rat plasma, GDDP 0.8 g/kg p.o. (High dose group), n=3
[23] = 40 mg/kg p.o. for 7 days, isoprenaline-induced MI

Cc1coc2c1C(=O)C(=O)c1c-2ccc2c(C)cccc12 [TS I, tanshinone I]
solubility in water (in words) [1]: insoluble
Papp(apical→basolateral) (Caco-2 cell monolayers): 0.95^d ×10^-6 cm/s
Papp(basolateral→apical) (Caco-2 cell monolayers): 11.27^d ×10^-6 cm/s
apparent permeability in Caco-2 cell monolayers (Caco-2 cell monolayers): ≥ 10^-6 cm/s
Stability: Measured [2, 5]: 2.02 ± 0.32 ng/mL
Stability: RE [2, 5]: 0.78%
Stability: Measured [2, 6]: 470.56 ± 54.19 ng/mL
Stability: RE [2, 6]: 17.64%
Stability: Measured [2, 7]: 1562.58 ± 145.90 ng/mL
Stability: RE [2, 7]: -2.34%
Stability: Measured [2, 8]: 2.22 ± 0.30 ng/mL
Stability: RE [2, 8]: 10.90%
Stability: Measured [2, 9]: 469.39 ± 24.45 ng/mL
Stability: RE [2, 9]: 17.35%
Stability: Measured [2, 10]: 1771.82 ± 333.46 ng/mL
Stability: RE [2, 10]: 10.74%
Stability: Measured [2, 11]: 2.09 ± 0.20 ng/mL
Stability: RE [2, 11]: 4.39%
Stability: Measured [2, 12]: 459.00 ± 25.68 ng/mL
Stability: RE [2, 12]: 14.75%
Stability: Measured [2, 13]: 1482.38 ± 283.06 ng/mL
Stability: RE [2, 13]: -7.32%
determination in rat plasma at the planned successive PK time points [3]: could be determined
detection in rat plasma [3]: could be detected
AUC(0-inf) [3, 14]: 125 ± 115 ng·h/mL
AUC(0-t) [3, 14]: 63 ± 49.5 ng·h/mL
MRT inf [3, 14]: 27.3 ± 10.6 h
MRT last [3, 14]: 9.93 ± 0.87 h
Tmax [3, 14]: 1.25 ± 1.06 h
Cmax [3, 15]: 6.1 ± 3.08 ng/mL
half-life ([3]; Sprague-Dawley, rat, plasma, po, 0.4 g/kg, t1/2 β, rat plasma, GDDP 0.4 g/kg p.o. (Low dose group), n=3): 983 ± 532 min
AUC(0-inf) [3, 16]: 45.1 ± 20.6 ng·h/mL
AUC(0-t) [3, 16]: 40.1 ± 17.3 ng·h/mL
MRT inf [3, 16]: 7.72 ± 2.17 h
MRT last [3, 16]: 4.27 ± 1.62 h
Tmax [3, 16]: 1.25 ± 0.66 h
Cmax [3, 17]: < 10 ng/mL
Cmax [3, 18]: 8.59 ± 3.18 ng/mL
half-life [3, 19]: > 156 min
half-life [3, 20]: 703 ± 287 min
Cltot [3, 21]: 2.72 ± 2.51 L/h/kg
Cltot [3, 22]: 9.78 ± 3.59 L/h/kg
Histopathology of heart tissue (H&E) ([4]; 40 mg/kg p.o. for 7 days, isoprenaline-induced MI, 40 mg/kg): myocardial lysis, architecture disorder, and loss of striations in heart tissue; also recorded: myocardial lysis, and architecture disorder, and loss of striations in heart tissue
ECG (lead II) findings on the fifth day of the trial [4]: T waves reversed or decreased

Cc1coc2c1C(=O)C(=O)c1c-2ccc2c1CCCC2(C)C [TS IIA, tanshinone (TS) IIA]
solubility in water (in words) [1]: insoluble
Papp(apical→basolateral) (Caco-2 cell monolayers): 0.98^d ×10^-6 cm/s
Papp(basolateral→apical) (Caco-2 cell monolayers): 11.81^d ×10^-6 cm/s
apparent permeability in Caco-2 cell monolayers (Caco-2 cell monolayers): ≥ 10^-6 cm/s
Stability: Measured [2, 5]: 2.25 ± 0.34 ng/mL
Stability: RE [2, 5]: 12.73%
Stability: Measured [2, 6]: 464.77 ± 53.87 ng/mL
Stability: RE [2, 6]: 16.19%
Stability: Measured [2, 7]: 1714.76 ± 174.65 ng/mL
Stability: RE [2, 7]: 7.17%
Stability: Measured [2, 8]: 2.14 ± 0.11 ng/mL
Stability: RE [2, 8]: 6.84%
Stability: Measured [2, 9]: 462.76 ± 13.70 ng/mL
Stability: RE [2, 9]: 15.69%
Stability: Measured [2, 10]: 1933.47 ± 224.22 ng/mL
Stability: RE [2, 10]: 20.84%
Stability: Measured [2, 11]: 2.10 ± 0.23 ng/mL
Stability: RE [2, 11]: 4.94%
Stability: Measured [2, 12]: 468.67 ± 61.03 ng/mL
Stability: RE [2, 12]: 19.13%
Stability: Measured [2, 13]: 1830.46 ± 289.25 ng/mL
Stability: RE [2, 13]: 14.40%
determination in rat plasma at the planned successive PK time points [3]: could be determined
detection in rat plasma [3]: could be detected
AUC(0-inf) [3, 14]: 71.7 ± 47.4 ng·h/mL
AUC(0-t) [3, 14]: 23.5 ± 6.4 ng·h/mL
MRT last [3, 14]: 5.4 ± 0.41 h
Cmax [3, 15]: 4.04 ± 0.72 ng/mL
AUC(0-inf) [3, 16]: 90.7 ± 52.9 ng·h/mL
AUC(0-t) [3, 16]: 31.1 ± 1.74 ng·h/mL
MRT last [3, 16]: 5.23 ± 0.04 h
Tmax [3, 16]: 0.33 ± 0.14 h
Cmax [3, 17]: < 10 ng/mL
Cmax [3, 18]: 9.21 ± 0.78 ng/mL
half-life [3, 19]: > 156 min
half-life [3, 20]: 1100 ± 781 min
Cltot [3, 21]: 22.93 ± 15.15 L/h/kg
MRT0-∞ [3, 21]: 27.09 ± 16.67 h
Tmax [3, 21]: 0.25 ± 0.00 h
t1/2 β [3, 21]: 18.14 ± 12.52 h
Cltot [3, 22]: 35.11 ± 18.25 L/h/kg
MRT0-∞ [3, 22]: 26.52 ± 19.83 h
ST segment elevations on the seventh day of the trial ([4]; 40 mg/kg p.o. for 7 days, compared with model group, P < 0.05): significantly decreased
Histopathology of heart tissue (H&E) [4, 23]: edema, inflammatory infiltration, and loss of striations in heart tissue
anti-MI effect (overall conclusion) [4, 23]: mild therapeutic effect
ECG (lead II) findings on the fifth day of the trial [4]: ST segment elevated
